{"source": "patent US20240228463A1", "about": "“SODIUM CHANNEL INHIBITORS AND METHODS OF DESIGNING SAME” (Genentech, Inc., priority 2021, published 2024)", "data": [{"target": "T1, hNaV1.7 (Homo sapiens, UniProt Q15858)", "T1 construct": "expressed in transfected cells", "T1 sequence (Q15858 1-1977 isoform Q15858-3)": "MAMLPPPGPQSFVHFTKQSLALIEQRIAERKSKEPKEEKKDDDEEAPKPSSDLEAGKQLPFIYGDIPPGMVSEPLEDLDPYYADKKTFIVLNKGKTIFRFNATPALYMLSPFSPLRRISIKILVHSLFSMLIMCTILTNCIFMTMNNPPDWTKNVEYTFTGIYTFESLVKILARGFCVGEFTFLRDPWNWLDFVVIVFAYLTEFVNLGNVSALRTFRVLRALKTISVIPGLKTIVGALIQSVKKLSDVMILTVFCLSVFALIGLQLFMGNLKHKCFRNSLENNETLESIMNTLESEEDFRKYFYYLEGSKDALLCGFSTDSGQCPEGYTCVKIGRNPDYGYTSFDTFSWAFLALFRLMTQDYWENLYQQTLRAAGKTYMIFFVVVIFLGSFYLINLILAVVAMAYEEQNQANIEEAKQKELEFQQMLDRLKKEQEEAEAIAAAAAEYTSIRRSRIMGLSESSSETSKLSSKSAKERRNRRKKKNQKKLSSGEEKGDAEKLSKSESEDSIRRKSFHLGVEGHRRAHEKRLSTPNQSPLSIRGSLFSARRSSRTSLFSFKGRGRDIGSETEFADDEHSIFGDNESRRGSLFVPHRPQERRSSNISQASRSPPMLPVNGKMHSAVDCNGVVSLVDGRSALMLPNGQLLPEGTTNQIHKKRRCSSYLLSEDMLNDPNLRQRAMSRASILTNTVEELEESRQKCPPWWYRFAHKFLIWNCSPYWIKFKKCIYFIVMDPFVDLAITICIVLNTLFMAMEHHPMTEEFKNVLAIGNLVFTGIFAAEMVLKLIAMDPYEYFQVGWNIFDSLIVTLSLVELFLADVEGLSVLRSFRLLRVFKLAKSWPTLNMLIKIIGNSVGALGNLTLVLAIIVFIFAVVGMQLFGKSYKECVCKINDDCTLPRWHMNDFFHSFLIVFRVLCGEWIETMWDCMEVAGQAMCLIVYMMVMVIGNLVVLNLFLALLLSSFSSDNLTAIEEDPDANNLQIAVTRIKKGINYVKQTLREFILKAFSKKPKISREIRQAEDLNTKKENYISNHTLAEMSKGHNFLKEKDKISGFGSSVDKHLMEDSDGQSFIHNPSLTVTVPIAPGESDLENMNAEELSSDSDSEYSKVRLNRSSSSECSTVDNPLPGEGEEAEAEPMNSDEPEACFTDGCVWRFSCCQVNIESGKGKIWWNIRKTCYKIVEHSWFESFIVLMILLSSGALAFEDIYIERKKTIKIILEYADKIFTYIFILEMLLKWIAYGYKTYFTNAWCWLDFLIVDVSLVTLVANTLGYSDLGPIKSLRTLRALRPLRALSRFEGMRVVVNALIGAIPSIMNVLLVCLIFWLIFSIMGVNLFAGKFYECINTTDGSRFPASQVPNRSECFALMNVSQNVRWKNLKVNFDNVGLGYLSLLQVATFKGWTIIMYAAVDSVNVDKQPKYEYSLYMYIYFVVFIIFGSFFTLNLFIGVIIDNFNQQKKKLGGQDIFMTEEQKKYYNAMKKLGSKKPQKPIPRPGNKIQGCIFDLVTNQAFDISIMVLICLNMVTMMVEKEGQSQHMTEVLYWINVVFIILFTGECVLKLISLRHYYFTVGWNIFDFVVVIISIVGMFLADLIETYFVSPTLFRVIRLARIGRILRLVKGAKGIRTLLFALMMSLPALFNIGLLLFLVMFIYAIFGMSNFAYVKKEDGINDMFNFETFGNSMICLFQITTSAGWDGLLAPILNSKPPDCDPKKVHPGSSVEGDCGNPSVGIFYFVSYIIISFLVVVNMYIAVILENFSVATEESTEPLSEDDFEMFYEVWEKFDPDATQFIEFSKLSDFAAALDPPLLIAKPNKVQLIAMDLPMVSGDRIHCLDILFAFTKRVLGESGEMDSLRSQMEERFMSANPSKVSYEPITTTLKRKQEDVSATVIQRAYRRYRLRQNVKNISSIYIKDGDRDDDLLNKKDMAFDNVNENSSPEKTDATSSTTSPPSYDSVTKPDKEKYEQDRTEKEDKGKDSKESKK", "experiment": "Patch voltage clamp electrophysiology (EP), Syncropatch 384PE, Nav1.7 in CHO cells;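 also: Nav1.7 stably expressed from cDNA in CHO cells, holding potential of −50 mV kept for the entire experiment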", "assay_type": "cell-based", "details": "hNaV1.7 EP_SP, holding potential −50 mV, inhibition based on 7.5 min compound incubation", "units": {"IC50": "nM"}, "values": [{"smiles": "O=C(NS(=O)(=O)N1CC[C@@H]2[C@@H](C1)OCC(=O)N2c1ccccc1)c1cc(Cl)c(OCC2CCCC2)cc1F", "note": "(single isomer, unassigned) [Example 44]", "IC50": 130}, {"smiles": "COc1cc(-c2cccc(C(F)(F)F)c2)c(F)cc1N1C(=O)CO[C@@H]2CN(S(=O)(=O)Nc3noc4ccc(C5CC5)cc34)CC[C@H]21", "note": "(single isomer, unassigned) [Example 93]", "IC50": 110}, {"smiles": "COc1cc(-c2cccc(C(F)(F)F)c2)c(F)cc1N1C(=O)CO[C@H]2CN(S(=O)(=O)Nc3noc4ccc(C5CC5)cc34)CC[C@@H]21", "note": "(single isomer, unassigned) [Example 94]", "IC50": 240}]}, {"target": "T1, hNaV1.7", "experiment": "Patch voltage clamp electrophysiology (EP), Syncropatch 384PE, Nav1.7 in CHO cells", "assay_type": "cell-based", "details": "holding potential −50 mV, inhibition based on 7.5 min compound incubation, read-out: hNaV1.7 EP_SP", "units": {"IC50": "nM"}, "values": [{"smiles": "O=C(NS(=O)(=O)N1CCC(OC2CCCNC2)CC1)c1cc(Cl)c(OCC2CCCC2)cc1F", "note": "(racemic) [Example 51, 5-chloro-4-(cyclopentylmethoxy)-2-fluoro-N-((4-(piperidin-3-yloxy)piperidin-1-yl)sulfonyl)benzamide 2,2,2-trifluoroacetate]", "IC50": 68}, {"smiles": "O=C(NS(=O)(=O)[C@@H]1C[C@H]1c1ccccc1)c1cc(Cl)c(OCC2CCCC2)cc1F", "note": "(relative stereo) [Example 284, 5-chloro-4-(cyclopentylmethoxy)-2-fluoro-N-((trans-2-phenylcyclopropyl)sulfonyl)benzamide]", "IC50": 120}, {"smiles": "C[C@H]1Cc2ccccc2N(S(=O)(=O)NC(=O)c2cc(Cl)c(OCC3CCCC3)cc2F)C1", "note": "(single isomer, unassigned) [Example 16]", "IC50": 240}, {"smiles": "C[C@@H]1Cc2ccccc2N(S(=O)(=O)NC(=O)c2cc(Cl)c(OCC3CCCC3)cc2F)C1", "note": "(single isomer, unassigned) [Example 17]", "IC50": 100}, {"smiles": "C[C@@H]1CCc2ccccc2N1S(=O)(=O)NC(=O)c1cc(Cl)c(OCC2CCCC2)cc1F", "note": "(single isomer, unassigned) [Example 18]", "IC50": 24}, {"smiles": "NC[C@@H]1CN(S(=O)(=O)NC(=O)c2cc(Cl)c(OCC3CCCC3)cc2F)CCO1", "note": "(single isomer, unassigned) [Example 24, 2,2,2-trifluoroacetate]", "IC50": 100}, {"smiles": "NC[C@@H]1CN(S(=O)(=O)NC(=O)c2cc(C3CC3)c(OCC3CCCC3)cc2F)CCO1", "note": "(single isomer, unassigned) [Example 25, 2,2,2-trifluoroacetate]", "IC50": 15}, {"smiles": "CNC[C@@H]1CN(S(=O)(=O)NC(=O)c2cc(Cl)c(OCC3CCCC3)cc2F)CCO1", "note": "(single isomer, unassigned) [Example 26]", "IC50": 190}, {"smiles": "NC[C@H]1CCCN(S(=O)(=O)NC(=O)c2cc(Cl)c(OCC3CCCC3)cc2F)C1", "note": "(single isomer, unassigned) [Example 27, 2,2,2-trifluoroacetate]", "IC50": 90}, {"smiles": "CN(C)C[C@@H]1CN(S(=O)(=O)NC(=O)c2cc(Cl)c(OCC3CCCC3)cc2F)CCO1", "note": "(single isomer, unassigned) [Example 28]", "IC50": 230}, {"smiles": "O=C(NS(=O)(=O)N1CCC(O[C@@H]2CCNC2)CC1)c1cc(C2CC2)c(OCC2CCCC2)cc1F", "note": "(single isomer, unassigned) [Example 29, 2,2,2-trifluoroacetate]", "IC50": 27}, {"smiles": "O=C(NS(=O)(=O)N1CC(O[C@@H]2CCNC2)C1)c1cc(Cl)c(OCC2CCCC2)cc1F", "note": "(single isomer, unassigned) [Example 31, 2,2,2-trifluoroacetate]", "IC50": 390}, {"smiles": "O=C(NS(=O)(=O)N1CCC(O[C@@H]2CCNC2)CC1)c1cc(Cl)c(OCC2CCCC2)cc1F", "note": "(single isomer, unassigned) [Example 36, 2,2,2-trifluoroacetate]", "IC50": 200}, {"smiles": "O=C(NS(=O)(=O)N1CCC(O[C@H]2CCNC2)CC1)c1cc(Cl)c(OCC2CCCC2)cc1F", "note": "(single isomer, unassigned) [Example 37, 2,2,2-trifluoroacetate]", "IC50": 77}, {"smiles": "CN1CC[C@H](OC2CCN(S(=O)(=O)NC(=O)c3cc(Cl)c(OCC4CCCC4)cc3F)CC2)C1", "note": "(single isomer, unassigned) [Example 38]", "IC50": 39}, {"smiles": "O=C(NS(=O)(=O)N1CC(O[C@@H]2CCCNC2)C1)c1cc(Cl)c(OCC2CCCC2)cc1F", "note": "(single isomer, unassigned) [Example 48]", "IC50": 860}, {"smiles": "O=C(NS(=O)(=O)N1CC(O[C@@H]2CCCNC2)C1)c1cc(Cl)c(OCC2CCCC2)cc1F", "note": "(single isomer, unassigned) [Example 49]", "IC50": 860}, {"smiles": "O=C(NS(=O)(=O)c1ccc(O[C@@H]2CCNC2)cc1)c1cc(Cl)c(OCC2CCCC2)cc1F", "note": "(single isomer, unassigned) [Example 69]", "IC50": 130}, {"smiles": "O=S(=O)(Nc1noc2cc(OCC3CCCC3)c(Cl)cc12)N1CCC(O[C@H]2CCNC2)CC1", "note": "(single isomer, unassigned) [Example 90, 2,2,2-trifluoroacetate]", "IC50": 400}, {"smiles": "O=S(=O)(Nc1noc2cc(OCC3CCCC3)c(C3CC3)cc12)N1CCC(O[C@@H]2CCNC2)CC1", "note": "(single isomer, unassigned) [Example 91, 2,2,2-trifluoroacetate]", "IC50": 790}, {"smiles": "O=S(=O)(Nc1noc2cc(OCC3CCCC3)c(C3CC3)cc12)N1CCC(O[C@H]2CCNC2)CC1", "note": "(single isomer, unassigned) [Example 92, 2,2,2-trifluoroacetate]", "IC50": 69}, {"smiles": "CN(C)C1CCCN(c2ccc(S(=O)(=O)NC(=O)c3cc(Cl)c(OCC4CCCC4)cc3F)cc2)C1", "note": "(single isomer, unassigned) [Example 209]", "IC50": 110}, {"smiles": "O=C(NS(=O)(=O)N1CC[C@H](OC2CCNCC2)C1)c1cc(Cl)c(OCC2CCCC2)cc1F", "note": "(single isomer, unassigned) [Example 212]", "IC50": 87}, {"smiles": "O=C(NS(=O)(=O)N1CC[C@@H](OC2CCNCC2)C1)c1cc(Cl)c(OCC2CCCC2)cc1F", "note": "(single isomer, unassigned) [Example 213]", "IC50": 420}, {"smiles": "N[C@]12C[C@H]1CN(S(=O)(=O)NC(=O)c1cc(Cl)c(OCC3CCCC3)cc1F)C2", "note": "(single isomer, unassigned) [Example 217, 2,2,2-trifluoroacetate]", "IC50": 370}, {"smiles": "N[C@@]12C[C@@H]1CN(S(=O)(=O)NC(=O)c1cc(Cl)c(OCC3CCCC3)cc1F)C2", "note": "(single isomer, unassigned) [Example 218, 2,2,2-trifluoroacetate]", "IC50": 560}, {"smiles": "N[C@H]1CCCCN(S(=O)(=O)NC(=O)c2cc(Cl)c(OCC3CCCC3)cc2F)C1", "note": "(single isomer, unassigned) [Example 219, 2,2,2-trifluoroacetate]", "IC50": 650}, {"smiles": "O=C(NS(=O)(=O)N1CC[C@@H]2CCC[C@H]21)c1cc(Cl)c(OCC2CCCC2)cc1F", "note": "(single isomer, unassigned) [Example 220]", "IC50": 14}, {"smiles": "O=C(NS(=O)(=O)N1CC[C@H]2CCC[C@@H]21)c1cc(Cl)c(OCC2CCCC2)cc1F", "note": "(single isomer, unassigned) [Example 221]", "IC50": 16}, {"smiles": "C[C@@H]1CCCN1S(=O)(=O)NC(=O)c1cc(Cl)c(OCC2CCCC2)cc1F", "note": "(single isomer, unassigned) [Example 222]", "IC50": 33}, {"smiles": "C[C@H]1CCCN1S(=O)(=O)NC(=O)c1cc(Cl)c(OCC2CCCC2)cc1F", "note": "(single isomer, unassigned) [Example 223]", "IC50": 39}, {"smiles": "C[C@H]1CCCCN1S(=O)(=O)NC(=O)c1cc(Cl)c(OCC2CCCC2)cc1F", "note": "(single isomer, unassigned) [Example 224]", "IC50": 40}, {"smiles": "C[C@@H]1CCCCN1S(=O)(=O)NC(=O)c1cc(Cl)c(OCC2CCCC2)cc1F", "note": "(single isomer, unassigned) [Example 225]", "IC50": 10}, {"smiles": "COC[C@H](C)S(=O)(=O)NC(=O)c1cc(Cl)c(OCC2CCCC2)cc1F", "note": "(single isomer, unassigned) [Example 248]", "IC50": 760}, {"smiles": "COC[C@@H](C)S(=O)(=O)NC(=O)c1cc(Cl)c(OCC2CCCC2)cc1F", "note": "(single isomer, unassigned) [Example 249]", "IC50": 110}, {"smiles": "C[C@H]1C[C@@H]1S(=O)(=O)NC(=O)c1cc(Cl)c(OCC2CCCC2)cc1F", "note": "(single isomer, unassigned) [Example 250]", "IC50": 9.8}, {"smiles": "C[C@@H]1C[C@H]1S(=O)(=O)NC(=O)c1cc(Cl)c(OCC2CCCC2)cc1F", "note": "(single isomer, unassigned) [Example 251]", "IC50": 16}, {"smiles": "CC[C@H](C)S(=O)(=O)NC(=O)c1cc(Cl)c(OCC2CCCC2)cc1F", "note": "(single isomer, unassigned) [Example 254]", "IC50": 14}, {"smiles": "CC[C@@H](C)S(=O)(=O)NC(=O)c1cc(Cl)c(OCC2CCCC2)cc1F", "note": "(single isomer, unassigned) [Example 255]", "IC50": 26}, {"smiles": "CN1CC[C@H](OC2CCN(S(=O)(=O)NC(=O)c3cc(Cl)c(OCC4CCCC4)cc3F)CC2)C1", "note": "(single isomer, unassigned) [Example 326]", "IC50": 230}, {"smiles": "O=C(NS(=O)(=O)N1CCC(OC2CCNC2)CC1)c1cc(C2CC2)c(OCC2CCCC2)cc1F", "note": "(stereo in doubt) [Example 30, (S)-4-(cyclopentylmethoxy)-5-cyclopropyl-2-fluoro-N-((4-(pyrrolidin-3-yloxy)piperidin-1-yl)sulfonyl)benzamide 2,2,2-trifluoroacetate]", "IC50": 16}, {"smiles": "O=C(NS(=O)(=O)c1ccc(OCC2CCNC2)cc1)c1cc(Cl)c(OCC2CCCC2)cc1F", "note": "(stereo in doubt) [Example 302, (R)-5-chloro-4-(cyclopentylmethoxy)-2-fluoro-N-((4-(pyrrolidin-3-ylmethoxy)phenyl)sulfonyl)benzamide]", "IC50": 120}, {"smiles": "C[C@H]1CCc2ccccc2N1S(=O)(=O)NC(=O)c1cc(Cl)c(OCC2CCCC2)cc1F", "note": "[(S) enantiomer of Example 18]", "IC50": 500}, {"smiles": "CN1CC(OC2CCN(S(=O)(=O)NC(=O)c3cc(Cl)c(OCC4CCCC4)cc3F)CC2)C1", "note": "[Example 1, 5-chloro-4-(cyclopentylmethoxy)-2-fluoro-N-((4-((1-methylazetidin-3-yl)oxy)piperidin-1-yl)sulfonyl)benzamide]", "IC50": 110}, {"smiles": "Cc1cc(C(=O)NS(=O)(=O)N2CCC(OC3CN(C)C3)CC2)c(F)cc1OCC1CCCC1", "note": "[Example 2, 4-(cyclopentylmethoxy)-2-fluoro-5-methyl-N-((4-((1-methylazetidin-3-yl)oxy)piperidin-1-yl)sulfonyl)benzamide]", "IC50": 64}, {"smiles": "CCc1cc(C(=O)NS(=O)(=O)N2CCC(OC3CN(C)C3)CC2)c(F)cc1OCC1CCCC1", "note": "[Example 3, 4-(cyclopentylmethoxy)-5-ethyl-2-fluoro-N-((4-((1-methylazetidin-3-yl)oxy)piperidin-1-yl)sulfonyl) benzamide]", "IC50": 22}]}]}
